The conditions of the data set: 101 kPa, Liquid.

± gives the expanded uncertainty stated by the source.

For orientation: mass density means mass per unit of volume. Usually viscosity stands for the resistance of a fluid to flow.

For the molecule `OCCN1CCOCC1` [4-morpholineethanol], the mass density reads like this: (293.15 K) 1076.58 ± 3.1 kg/m3; (303.15 K) 1066.51 ± 3 kg/m3; (313.15 K) 1059.19 ± 2.8 kg/m3; (323.15 K) 1052.64 ± 2.7 kg/m3; (333.15 K) 1046.43 ± 2.6 kg/m3. Besides, the viscosity runs as follows: (293.15 K) 26.58 ± 1.8 mPa·s; (303.15 K) 21.99 ± 1.5 mPa·s; (313.15 K) 17.32 ± 1.2 mPa·s; (323.15 K) 12.86 ± 0.92 mPa·s; (333.15 K) 8.284 ± 0.64 mPa·s.

For the origin of these results see the NIST ThermoML archive (doi:10.1016/j.jct.2008.01.007).
